Patent US8946261B2, “Substituted 1, 2, 3, 4-tetrahydroquinolin-7-yl carbamates as acetylcholinesterase inhibitors for treatment of Alzheimer's disease” (priority 2011, dated 2015)
Values joined by “and” are separate entries in the source; they are usually repeats but may differ in a detail not shown here. Equal entries are not always repeated. “Also recorded” adds a separate entry of the source.

Columns and labels:
[1] = molecular target: T1, Acetylcholinesterase (AChE) (Mus musculus, UniProt P21836); test: Acetylcholinesterase (AChE) assay in brain (in vitro), Ellman method; assay type: biochemical, Swiss albino mice
T1 construct: A 10% (w/v) homogenate of brain was prepared; from tissue; host or cells: whole brain of adult Swiss albino mice; supernatant (100,000 g) of the 1% Triton X-100 treated homogenate
T1 sequence (P21836 32-614): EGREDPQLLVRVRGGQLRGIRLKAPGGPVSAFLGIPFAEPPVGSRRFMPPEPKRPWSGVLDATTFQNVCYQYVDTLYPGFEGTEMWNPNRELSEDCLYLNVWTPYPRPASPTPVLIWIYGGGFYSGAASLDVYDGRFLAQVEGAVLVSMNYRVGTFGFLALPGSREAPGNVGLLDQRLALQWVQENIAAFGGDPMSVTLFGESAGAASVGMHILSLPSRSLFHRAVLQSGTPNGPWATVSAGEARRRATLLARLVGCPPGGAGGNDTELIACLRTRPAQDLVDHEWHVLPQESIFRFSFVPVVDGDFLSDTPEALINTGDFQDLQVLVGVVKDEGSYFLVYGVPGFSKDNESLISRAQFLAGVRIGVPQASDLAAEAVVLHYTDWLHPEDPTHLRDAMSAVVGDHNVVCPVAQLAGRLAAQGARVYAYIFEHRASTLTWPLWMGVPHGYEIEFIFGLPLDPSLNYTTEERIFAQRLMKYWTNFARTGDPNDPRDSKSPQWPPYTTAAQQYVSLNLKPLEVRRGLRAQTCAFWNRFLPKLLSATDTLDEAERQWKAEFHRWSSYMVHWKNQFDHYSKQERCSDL
Experimental: Acetylcholinesterase (AChE) Assay in Brain (In Vitro)
The mice were perfused under mild ether anesthesia through heart with ice cooled normal saline (0.9% NaCl) to remove blood-born cholinesterase from the brain. After perfusion the whole brain was taken out. A 10% (w/v) homogenate of brain was prepared first by homogenizing in an Ultra-Turrax T25 homogenizer at a speed of 9500 rpm thrice giving intervals for few seconds in between the runs, with sodium phosphate buffer (0.03 M, pH-7)).
The brain homogenate in volume of 500 μl was mixed with 1% Triton X-100 (1% w/v in 0.03M sodium phosphate buffer, pH-7) and centrifuged at 100,000 g at 4° C. in a Beckman Ultracentrifuge (LE 80, USA), using a fixed angle rotor (80 ti) for 60 min. Supernatant was collected and stored at 4° C. for acetylcholinesterase estimation.
The assay for each sample was run in triplicate and each experiment was performed twice.
The specific activity of AChE is expressed in μM/min/mg of protein.
The test substance (dissolved in ethanol) was incubated with enzyme source in different concentrations ([…]) for 30 min at 37° C. prior to obtain kinetic profile of AChE activity. […] The AChE inhibitory activity was calculated on the basis of % decrease in AChE activity from control values i.e. AChE activity without incubation with any standard or test drug.
The results are expressed as mean±S.E.M. Statistical analysis of passive avoidance values were performed by t-test. The IC50 value was calculated by non linear regression method using GraphPad Prism software.

[2] = system: scopolamine induced amnesia in mice; test: Passive avoidance test, scopolamine induced amnesia (in vivo); design: species or system Swiss albino male mice; details: oral 3.75, 7.5 and 15 mg/kg 1 hr prior to 1st trial, scopolamine 3 mg/kg IP, FIG. 3
Experimental: Passive avoidance test is widely used as experimental model to assess learning and memory functions in rodents. Scopolamine induced impairment in passive avoidance (in vivo) and inhibition of acetylcholinesterase (in vitro) in rodents are commonly employed screening tests to predict potential of a compound as acetylcholinesterase inhibitor and anti-amnesic drug (Das et al., 2002).
[…]. Mice were kept in standard housing condition with 12 h light and dark cycle. The food and water were available ad libitum.
The passive avoidance test was carried out as described by Tota et al., 2009. The mice were subjected to the passive avoidance test by placing in a compartment with light at intensity of 8 [Scale from 0 to 10 (brightest)] in a computerized shuttle box with a software programme PACS 30 (Columbus Instruments, Ohio, USA).
The light compartment was isolated from the dark compartment by an automated guillotine door. After an acclimatization period of 30 s, the guillotine door was opened and closed automatically after entry of the mouse into the dark compartment. The subject received a low-intensity foot shock (0.5 mA; 10 s) in the dark compartment. Infrared sensors monitored the transfer of the animal from one compartment to another which was recorded as transfer latency time (TLT) in seconds. […]

Swiss albino male mice = test: Gross behavioral study; details: 125 mg/kg oral dose, 125 mg/kg
[3] = read-out: % Inhibition of AChE enzyme

Structure (SMILES): CN(C)C(=O)Oc1ccc2c(c1)N(Cc1ccccc1)CCC2 [Compound 8k, 1-benzyl-1,2,3,4-tetrahydroquinolin-7-yl dimethylcarbamate]
- IC50 [1]: 0.099 ± 0.003 µM
- AChE inhibitory activity compared to Tacrine ([1]; comparison with Tacrine): almost equal or even slightly better
- AChE inhibitory activity, fold better compared to the drug rivastigmine ([1]; fold better than rivastigmine): 12 fold and 10 fold
- inhibition at 10 µM [1, 3]: 95.5%
- inhibition at 100 µM [1, 3]: 98%
- improvement in learning (transfer latency time, passive avoidance) [2]: shown potential towards the improvement in learning of mice and almost comparable to the drug Rivastigmine and Tacrine
- tolerability (Swiss albino male mice): Well tolerated
- cholinergic symptoms / side effects (Swiss albino male mice; upto 24 hrs of drug administration): no cholinergic symptoms and mortality was observed; also recorded: free from any observable side peripheral side effect; also recorded: No cholinergic symp-
